These results are taken from ChEMBL document CHEMBL1201862, “PubChem BioAssay data set” (2004).

Some test systems named below: UO-31; SN12C; SW-620; SK-MEL-28; MDA-MB-231; HT-29; PC-3; RPMI-8226; SK-MEL-2; OVCAR-4; SF-295; SR; BT-549; SNB-19; K562; HCC 2998; Malme-3M; HCT-116; A549; IGROV-1.
Common to all, as to test: inhibition of tumour cell growth, NCI panel, 48 h

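96-well plates; 48 h exposure; 5 concentrations. Endpoints by linear interpolation between flanking doses. Not reached: highest tested concentration assigned. GI50 marks 50% less growth.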 The source made the active and inactive calls. No stated cut-off is given here; in the data, active = GI50 up to about 1.1 µM and inactive = higher.

On to `O=P(O)(O)CN1CCNCCN(CP(=O)(O)O)CC1`, for which the GI50 in the experiment with UO-31 is > 100 µM (inactive); with SN12C it was > 100 µM (inactive); in the experiment with SW-620, 19.3 µM (inactive); with SK-MEL-28, > 100 µM (inactive); in the experiment with MDA-MB-231, 36 µM (inactive); with HT-29, 4.26 µM (inactive). Moreover, the GI50 in the experiment on PC-3 was 52.4 µM (inactive); with RPMI-8226, 20.4 µM (inactive); in the experiment on SK-MEL-2, 46 µM (inactive); in the experiment on OVCAR-4 it was > 100 µM (inactive); in the experiment on SF-295, 41.5 µM (inactive); in the experiment on SR, 9.44 µM (inactive). Also, the GI50 in the experiment with BT-549 was > 100 µM (inactive); in the experiment on SNB-19, > 100 µM (inactive); in the experiment on K562 it was 6.32 µM (inactive); in the experiment with HCC 2998, 12.3 µM (inactive); in the experiment with Malme-3M it was > 37.3 µM (inactive); with HCT-116, 8.93 µM (inactive). Further, the GI50 in the experiment on A549 is 15.2 µM (inactive); in the experiment with IGROV-1, 33.3 µM (inactive).

With `COc1ccc(C(C)NNC(=O)c2ccncc2)cc1OC` (stereo not given), the GI50 in the experiment on UO-31, in the experiment with SN12C, with SW-620, in the experiment on SK-MEL-28, in the experiment with MDA-MB-231 and in the experiment on HT-29 was > 100 µM (inactive) each time. Moreover, the GI50 with PC-3, in the experiment with RPMI-8226, with SK-MEL-2, in the experiment on OVCAR-4, with SF-295 and in the experiment on SR was > 100 µM (inactive) each time. Moreover, the GI50 in the experiment on BT-549, in the experiment on SNB-19, in the experiment on K562, in the experiment on HCC 2998, with Malme-3M and in the experiment with HCT-116 was > 100 µM (inactive) each time. Further, the GI50 with A549 and in the experiment with IGROV-1 was > 100 µM (inactive) in each case.

Take `CCCN1CC=C(c2cc(C(=O)OCC)[nH]c2-c2cc(C)no2)C1=O`: the GI50 in the experiment with UO-31 was 89.7 µM (inactive); in the experiment on SN12C, > 100 µM (inactive); with SW-620, > 100 µM (inactive); in the experiment with SK-MEL-28 it was > 100 µM (inactive); with MDA-MB-231, > 100 µM (inactive); in the experiment with HT-29, > 100 µM (inactive). For the same compound, the GI50 in the experiment with PC-3 is > 100 µM (inactive); in the experiment with RPMI-8226 it was 75 µM (inactive); in the experiment on SK-MEL-2 it was > 100 µM (inactive); in the experiment on OVCAR-4 it was > 100 µM (inactive); with SF-295, > 100 µM (inactive); in the experiment with SR it was 54.7 µM (inactive). Further, the GI50 with BT-549, in the experiment with SNB-19, with K562, in the experiment with HCC 2998, in the experiment on Malme-3M and in the experiment with HCT-116 was > 100 µM (inactive) in each case. Further, the GI50 with A549 and in the experiment with IGROV-1 was > 100 µM (inactive) each time.

With `N=c1oc2ccc3ccccc3c2cc1-c1nc(O)c2ccccc2n1`, the GI50 with UO-31 was 3.23 µM (inactive); with SN12C, 74 µM (inactive); in the experiment with SW-620, 36.8 µM (inactive); with SK-MEL-28, 95.7 µM (inactive); with MDA-MB-231, 24.1 µM (inactive); in the experiment with HT-29 it was 13 µM (inactive). The GI50 is 13.4 µM (inactive) in the experiment with PC-3; 42.6 µM (inactive) with RPMI-8226; 14.4 µM (inactive) in the experiment on SK-MEL-2; 20.6 µM (inactive) in the experiment on OVCAR-4; 30.2 µM (inactive) in the experiment with SF-295; 26.5 µM (inactive) in the experiment with SR. For the same compound, the GI50 in the experiment on BT-549 is 15.1 µM (inactive); in the experiment on SNB-19, 27.6 µM (inactive); with K562, 19.7 µM (inactive); in the experiment with HCC 2998, 29.6 µM (inactive); in the experiment with Malme-3M it was 23.4 µM (inactive); in the experiment with HCT-116 it was 24.4 µM (inactive). Also, the GI50 is 20.7 µM (inactive) in the experiment with A549 and 16 µM (inactive) with IGROV-1.

Turning to `c1ccc2nc(CCC3CCCCN3)ccc2c1` (stereo not given), the GI50 in the experiment with UO-31 is 78.3 µM (inactive); in the experiment with SN12C, > 100 µM (inactive); in the experiment with SW-620, > 100 µM (inactive); in the experiment on SK-MEL-28, > 100 µM (inactive); in the experiment with MDA-MB-231 it was > 100 µM (inactive); with HT-29, > 100 µM (inactive). The GI50 in the experiment on PC-3 was > 100 µM (inactive); in the experiment on RPMI-8226 it was 39.9 µM (inactive); in the experiment on SK-MEL-2 it was > 100 µM (inactive); with OVCAR-4, > 100 µM (inactive); with SF-295, 53 µM (inactive); in the experiment on SR, 68.5 µM (inactive). The GI50 in the experiment with BT-549 is 61.7 µM (inactive); in the experiment with SNB-19, > 100 µM (inactive); in the experiment with K562 it was 47.4 µM (inactive); with HCC 2998 it was > 100 µM (inactive); in the experiment on Malme-3M, 91.4 µM (inactive); in the experiment with HCT-116, > 100 µM (inactive). The GI50 was > 100 µM (inactive) in the experiment on A549 and 69.8 µM (inactive) with IGROV-1.

Regarding `COc1cc(OC)cc(C(=O)NC2=C(Cl)C(=O)c3ccccc3C2=O)c1`, the GI50 with UO-31 was 3.15 µM (inactive); in the experiment with SN12C, 3.15 µM (inactive); in the experiment on SW-620, 1.01 µM (active); with SK-MEL-28, 2.96 µM (inactive); in the experiment on MDA-MB-231, 4.08 µM (inactive); in the experiment with HT-29, 4.67 µM (inactive). For the same compound, the GI50 in the experiment on PC-3 was 1.23 µM (inactive); in the experiment with RPMI-8226, 0.706 µM (active); with SK-MEL-2 it was 1.65 µM (inactive); in the experiment with OVCAR-4 it was 1.79 µM (inactive); in the experiment on SF-295, 2.92 µM (inactive); in the experiment with SR, 1.06 µM (active). Also, the GI50 in the experiment on BT-549 was 2.27 µM (inactive); in the experiment with SNB-19, 5.5 µM (inactive); in the experiment on K562 it was 0.798 µM (active); in the experiment on HCC 2998, 3.48 µM (inactive); with Malme-3M, 1.74 µM (inactive); in the experiment with HCT-116 it was 0.668 µM (active). Further, the GI50 in the experiment with A549 is 4.34 µM (inactive); in the experiment on IGROV-1, 2.18 µM (inactive).

Regarding `CC(=O)Nc1ccc2c3c(cc(O)c2c1)N(C(=O)CCCCCCC(=O)N1CC(CCl)c2c1cc(O)c1cc(NC(C)=O)ccc21)CC3CCl` (stereo not given), the GI50 is 0.0509 µM (active) with UO-31; < 0.01 µM (active) in the experiment with SN12C; 0.0151 µM (active) in the experiment on SW-620; 0.0148 µM (active) with SK-MEL-28; 0.0203 µM (active) in the experiment on MDA-MB-231; 0.0172 µM (active) in the experiment with HT-29. For the same compound, the GI50 in the experiment on PC-3 is < 0.0119 µM (active); in the experiment with RPMI-8226, 0.059 µM (active); in the experiment on SK-MEL-2, < 0.01 µM (active); in the experiment on OVCAR-4, 0.0419 µM (active); with SF-295, < 0.01 µM (active); in the experiment on SR it was < 0.01 µM (active). In addition, the GI50 in the experiment with BT-549 was < 0.01 µM (active); in the experiment on SNB-19 it was < 0.01 µM (active); in the experiment with K562, < 0.0125 µM (active); with HCC 2998, < 0.01 µM (active); with Malme-3M, < 0.01 µM (active); in the experiment with HCT-116, < 0.01 µM (active). Also, the GI50 with A549 is 0.0113 µM (active); in the experiment on IGROV-1, 0.015 µM (active).

Take `O=[N+]([O-])c1ccc2c(c1)Nc1c3ccccc3nc3cccc-2c13`: the GI50 with UO-31 was 5.65 µM (inactive); in the experiment on SN12C, 11.3 µM (inactive); with SW-620, 2.13 µM (inactive); in the experiment with SK-MEL-28, 6.52 µM (inactive); with MDA-MB-231, 2.41 µM (inactive); in the experiment on HT-29, 3.1 µM (inactive). Besides, the GI50 in the experiment with PC-3 was 2.35 µM (inactive); in the experiment with RPMI-8226, 4.49 µM (inactive); in the experiment on SK-MEL-2 it was 15 µM (inactive); in the experiment with OVCAR-4 it was 1.43 µM (inactive); in the experiment with SF-295 it was 0.482 µM (active); in the experiment on SR, 0.733 µM (active). For the same compound, the GI50 in the experiment on BT-549 is 16.3 µM (inactive); in the experiment with SNB-19, 17.3 µM (inactive); in the experiment with K562 it was 2.1 µM (inactive); with HCC 2998 it was 0.183 µM (active); with Malme-3M, 2 µM (inactive); in the experiment with HCT-116 it was 5.38 µM (inactive). Moreover, the GI50 in the experiment on A549 was 2.16 µM (inactive); in the experiment with IGROV-1, 1.47 µM (inactive).

For `C=CC(C1=CC(=O)C(OC)=CC1=O)c1ccccc1` (stereo not given) [4-METHOXYDALBERGIONE], the GI50 is 15.9 µM (inactive) in the experiment with UO-31; 14.3 µM (inactive) in the experiment with SN12C; 19.5 µM (inactive) with SW-620; 15.5 µM (inactive) in the experiment on SK-MEL-28; 6.97 µM (inactive) in the experiment with MDA-MB-231; 19.3 µM (inactive) in the experiment on HT-29. Moreover, the GI50 in the experiment on PC-3 was 9.53 µM (inactive); with RPMI-8226 it was 9.64 µM (inactive); in the experiment with SK-MEL-2, 12.6 µM (inactive); in the experiment with OVCAR-4, 14.7 µM (inactive); with SF-295, 12.2 µM (inactive); with SR it was 3.86 µM (inactive). Besides, the GI50 in the experiment on BT-549 is 15.5 µM (inactive); with SNB-19 it was 15.8 µM (inactive); with K562, 3.33 µM (inactive); with HCC 2998, 16.7 µM (inactive); with Malme-3M it was 14.5 µM (inactive); with HCT-116 it was 8.81 µM (inactive). The GI50 was 25.4 µM (inactive) with A549 and 16.4 µM (inactive) in the experiment on IGROV-1.
